Source: patent publication US20050244490A1, “Dosing methods for beta-D-2',3'-dideoxy-2',3'-didehydro-5-fluorocytidine antiviral therapy” (priority 2003, published 2005)
Like-named read-outs stand apart in the source and are kept apart here. Each block holds one molecule with its values, some of them ahead of it.

Key:
HIV viral load [1] = settings: cited from earlier work
HepG2 cells = experiment: Mitochondrial toxicity testing (mitDNA, rRNA, lactic acid); format: cell-based; settings: 14 days; for % Change in Lactic Acid: normalized for cytotoxicity
Experimental: HepG2 cells were incubated for 14 days with the active agent. and mitDNA and rRNA levels were determined by quantitative real-time PCR. The results are tabulated in […]

[2] = tested on: acutely HIV-1 infected human PBM cells; experiment: Median effect / combination index study with Racivir; format: cell-based; settings: Human immunodeficiency virus 1, PBMC, 120 h; Day 5; assays (1), (2), (3); read-out: EC90
HIV viral load [3] = experiment: Viral load decline on repeated dosing, β-D-D4FC and competing nucleosides; format: in vivo; settings: 200 to 600 mg QD, duration of dosing 14; not monotherapy, in combination with EFV & D4T
wild type HIV-RT = molecular target: T1, wild type HIV-RT (Human immunodeficiency virus type 1 group M subtype B, UniProt P04585); experiment: Ki / Km for wild type HIV-RT; format: biochemical, HIV-1
T1 construct: The Ki value for β-D-D4FC-TP for wild type HIV-RT

M184V mutant RT = M184V mutant RT (Human immunodeficiency virus type 1 group M subtype B, UniProt P04585, M771V); experiment: biochemical; format: biochemical, HIV-1
DNA Pol γ = molecular target: T2, DNA Pol γ (Homo sapiens, UniProt P54098); experiment: Inhibition of pure DNA polymerase γ by nucleoside triphosphates; format: biochemical; settings: tritiated dCTP incorporation
T2 sequence (P54098 1-1239): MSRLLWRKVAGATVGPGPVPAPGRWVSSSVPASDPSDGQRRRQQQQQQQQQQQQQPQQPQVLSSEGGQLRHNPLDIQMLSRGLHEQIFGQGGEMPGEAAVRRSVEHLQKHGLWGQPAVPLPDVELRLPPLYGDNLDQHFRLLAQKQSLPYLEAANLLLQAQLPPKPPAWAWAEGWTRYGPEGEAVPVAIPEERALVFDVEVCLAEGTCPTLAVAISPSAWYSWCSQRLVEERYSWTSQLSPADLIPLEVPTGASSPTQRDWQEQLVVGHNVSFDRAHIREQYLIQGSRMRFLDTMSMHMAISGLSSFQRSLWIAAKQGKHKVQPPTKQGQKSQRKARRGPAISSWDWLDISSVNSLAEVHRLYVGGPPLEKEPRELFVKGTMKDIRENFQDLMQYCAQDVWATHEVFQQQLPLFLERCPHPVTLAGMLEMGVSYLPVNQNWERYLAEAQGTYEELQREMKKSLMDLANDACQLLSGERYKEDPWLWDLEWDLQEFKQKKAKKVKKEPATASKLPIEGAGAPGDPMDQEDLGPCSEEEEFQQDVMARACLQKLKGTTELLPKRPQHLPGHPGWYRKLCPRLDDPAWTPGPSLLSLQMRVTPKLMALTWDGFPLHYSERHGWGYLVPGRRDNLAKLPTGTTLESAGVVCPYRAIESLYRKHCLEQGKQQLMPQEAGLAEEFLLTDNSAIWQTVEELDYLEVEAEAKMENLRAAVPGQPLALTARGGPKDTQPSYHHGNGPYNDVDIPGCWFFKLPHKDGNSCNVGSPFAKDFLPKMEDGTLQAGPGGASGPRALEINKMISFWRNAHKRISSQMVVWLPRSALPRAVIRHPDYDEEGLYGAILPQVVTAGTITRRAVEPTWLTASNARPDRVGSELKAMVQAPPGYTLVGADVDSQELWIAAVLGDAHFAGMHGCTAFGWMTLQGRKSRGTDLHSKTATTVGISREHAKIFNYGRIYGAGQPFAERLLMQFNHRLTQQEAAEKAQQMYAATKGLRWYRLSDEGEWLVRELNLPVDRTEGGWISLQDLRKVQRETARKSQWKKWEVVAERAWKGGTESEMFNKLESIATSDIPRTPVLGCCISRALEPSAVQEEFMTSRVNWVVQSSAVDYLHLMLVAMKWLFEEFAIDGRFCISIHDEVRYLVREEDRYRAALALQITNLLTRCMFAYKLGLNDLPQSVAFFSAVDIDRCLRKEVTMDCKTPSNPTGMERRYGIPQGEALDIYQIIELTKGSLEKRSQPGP
Experimental: (§1) Triphosphates of nucleosides were tested against pure polymerases using tritiated dCTP incorporation.

DNA Pol β = DNA Pol β (Homo sapiens, UniProt P06746); experiment: Inhibition of pure DNA polymerase β by nucleoside triphosphates; format: biochemical; settings: tritiated dCTP incorporation
Experimental: as §1

[4] = Intracellular phosphorylation and triphosphate half-life in PBMCs
HIV RT = molecular target: T3, HIV RT (Human immunodeficiency virus type 1 group M subtype B, UniProt P04585); experiment: Inhibition of purified HIV-1 reverse transcriptase by nucleoside triphosphates (tritiated dCTP incorporation); format: biochemical
T3 construct: purified HIV-1 reverse transcriptase (RT)
Experimental: An assay was performed to determine the ability of β-D-D4FC-triphosphate to terminate polymerization catalyzed by purified HIV-1 reverse transcriptase (RT). […] The target concentration is that concentration where most mutant variants tested are suppressed by 90% or more. The concentration of 5 μM is the target plasma concentration as most, mutant variants tested were suppressed ≧90% in vitro.
as §1

Compound: Nc1nc(=O)n([C@@H]2CS[C@H](CO)O2)cc1F [FTC, β-L-2′,3′-dideoxy-3′-thia-5-fluorocytidine]
Viral Load Decline (log) (HIV viral load [1]; 200 mg QD, duration of dosing 12): −1.7 log

Compound: Nc1nc(=O)n([C@H]2C=C[C@@H](CO)O2)cc1F [L-D4FC]
% Change in mitDNA (HepG2 cells; 1 μM): −15%
% Change in rRNA (HepG2 cells; 1 μM): 0%
% Change in Lactic Acid (HepG2 cells; 1 μM): +25%
% Change in mitDNA (HepG2 cells; 10 μM): −74.2%
% Change in rRNA (HepG2 cells; 10 μM): −75.5%
% Change in Lactic Acid (HepG2 cells; 10 μM): +147%
Viral Load Decline (log) (HIV viral load [1]; 50 mg QD, duration of dosing 21, add-on study in experienced patients, mean of 7 of 18 patients): −1.69 log

Compound: Nc1nc(=O)n(C2CSC(CO)O2)cc1F (centres unmarked) [Racivir, reference compound]
EC90 [2]: 170 nM
Viral Load Decline (log) (HIV viral load [3]): −2.02 to −2.43 log

Compound: Nc1ccn([C@H]2CO[C@@H](CO)S2)c(=O)n1 [SPD 754]
Viral Load Decline (log) (HIV viral load [1]; 1200 mg QD, duration of dosing 10): −1.62 log

Compound: C[C@H](Cn1cnc2c(N)ncnc21)OCP(=O)(O)O [TFV]
Viral Load Decline (log) (HIV viral load [1]; 300 mg QD, duration of dosing 28): −1.57 log

Compound: Nc1ccn([C@H]2C[C@H](O)[C@@H](COP(=O)(O)OP(=O)(O)OP(=O)(O)O)O2)c(=O)n1 [dC-TP]
Km (wild type HIV-RT; Km for dC-TP (substrate), read-out: Km WT): 7 µM
Km (M184V mutant RT; Km for dC-TP (substrate)): 9 µM

Compound: Nc1ccn([C@H]2CC[C@@H](CO)O2)c(=O)n1 [ddC, 2′,3′-dideoxycytidine]
% Change in mitDNA (HepG2 cells; 1 μM): −99.7%
% Change in rRNA (HepG2 cells; 1 μM): −65.4%
% Change in Lactic Acid (HepG2 cells; 1 μM): +390%
% Change in mitDNA (HepG2 cells; 10 μM): −99.7%
% Change in rRNA (HepG2 cells; 10 μM): −73.6%
% Change in Lactic Acid (HepG2 cells; 10 μM): +492%

IC50 (DNA Pol γ): 70 nM
IC50 (DNA Pol β): 250 nM
Compound: Nc1ccn([C@H]2CC[C@@H](COP(=O)(O)OP(=O)(O)OP(=O)(O)O)O2)c(=O)n1 [ddC-TP]

Compound: Nc1nc(=O)n([C@H]2C=C[C@@H](COP(=O)(O)OP(=O)(O)OP(=O)(O)O)O2)cc1F [β-D-D4FC-TP]
IC50 (DNA Pol γ): 740 nM
Intracellular half life [4]: 13 to 17 h
intracellular half-life [4]: 13 to 17 h
extracellular concentration at which intracellular conversion to β-D-D4FC-TP plateaus ([4]; PHA-stimulated PBMCs): ~10 µM
accumulation, % of parent ([4]; in 8-10 hours): ~10%
Ki (wild type HIV-RT; read-out: Ki WT): 100 nM
Ki (M184V mutant RT; read-out: Ki M184V): 300 nM
IC50 (HIV RT; pure polymerase, tritiated dCTP incorporation, read-out: IC50): 140 nM
IC50 (HIV RT; read-out: IC50, wild type purified RT): 67 ± 40 nM
IC50 (DNA Pol β): 1200 nM
